This is an account of results in patent publication US4137236A, “Amino-spiro[oxa(or thia)cycloalkane-penam]-carboxylic” (U C B, Societe Anonyme, priority 1977, dated 1979).

Structures are written as SMILES.

The subject of assay [1] is Staphylococcus aureus 52149. Nature of the assay: MIC in gelose culture medium (relative to reference penicillin). Format: cell-based. Particulars: S.AUREUS 52149. The method, then: This is a Gram-positive coccus, the intrinsic sensitivity of the receptor of which is equivalent to that of the preceding strain but which produces a beta-lactamase which is typical of the species and which renders it resistant to all the penicillins which are sensitive to hydrolysis.
(§1) For a certain number of compounds of formula (XV), the minimum inhibitory concentration (MIC) was determined as follows:
(§2) The products to be tested are introduced in increasing concentrations into a gelose culture medium in Petri dishes. A multiple inoculator is used to deposit simultaneously drops (10 microliters) of inoculum (suspension of approximately 10^5 bacteria per ml) onto the surface of the medium. After incubation at 37° C for 24 hours, the growth of the bacteria is observed. By definition, the MIC is expressed by the minimum concentration of tested compound which inhibits the multiplication of the bacteia. In the following results, however, the MIC is given as being equal to 1 for the reference compounds and the activity figures given for the tested compounds of formula (XV) are, therefore, relative values. This presentation of the results is more correct and the most reproducible because, for one and the same bacterial strain, different MIC values can be observed if they are measured at different times. This is bound up with the "seasonal" variations in the strains and their nutrient medium.

The test system of assay [2] is Staphylococcus aureus 6538. Described as above. Format: cell-based. Particulars: S.AUREUS 6538. The method, then:
This is a Gram-positive coccus which is particularly sensitive to penicillins and which has a low resistance mechanism. This strain of Staphylococcus is, therefore, representative of a maximum sensitivity of the species.
as §1, §2

The subject of assay [3] is Escherichia coli B-Ampi R. The description is as above. Particulars: E.COLI B AMPI-R. Format: cell-based. The procedure: This is a mutant of the preceding strain which we have produced.
as §1, §2

Assay [4] relates to Gram-positive and Gram-negative bacteria. Put plainly: Comparative antibacterial activity spectra. Format: cell-based. Particulars: towards both Gram-positive and Gram-negative bacteria. The method, then:
as §2

For assay [5], the system named is Escherichia coli B. Nature of the assay: MIC in gelose culture medium (relative to reference penicillin). Format: cell-based. Particulars: E.COLI B. The method, then: This is a well-known collection strain of Escherichia coli which produces very little beta-lactamase (of type I) and is, therefore, very sensitive to penicillins. As regards the classification of the beta-lactamases, use is here made of that proposed by M. H. RICHMOND and R. B. SYKES (see Advances in Microbial Physiology,9,(1973),pp.43 and 45).
as §1, §2

The test system of assay [6] is beta-lactamase TEM. Nature of the assay: Rate of hydrolysis by beta-lactamase measured as NaOH consumed per minute. The class given is biochemical. The text has this: This method allows the dosage of the penicilloic acid resulting from the hydrolysis of the beta-lactam function by the lytic enzyme. The results of these kinetics, as given in the following Table, clearly show the superiority of compounds E and H as compared with pencillin G.

Where [7] appears, read: reference 6-amino-penicillanic acid = 1.

Regarding `N[C@@H]1C(=O)N2[C@@H]1SC1(CCOCC1)[C@@H]2C(=O)O` (relative stereo) [Compound D, 6-amino-2',3',5',6'-tetrahydro-spiro[penam-2,4'-[4H]-pyran]-3-carboxylic acid], the “MIC relative to reference compound (=1)” value in assay [1] (setting [7]) was 0.5; in assay [2] (setting [7]), 0.5; in assay [3] (setting [7]) it was 0.3; in assay [5] (setting [7]) it was 0.3. Also, in assay [4], the “Activity as compared with 6-amino-penicillanic acid (in words)” value was “better activity”.

For `O=C(Cc1ccccc1)N[C@@H]1C(=O)N2[C@@H]1SC1(CCSCC1)[C@@H]2C(=O)O` (relative stereo) [Compound E, 6-(2"-phenylacetamido)-2',3',5',6'-tetrahydro-spiro[penam-2,4'-[4H]thiopyran]-3-carboxylic acid], the “MIC relative to reference compound (=1)” value is reported as 1 in assay [1] (reference penicillin G = 1), 10 in assay [2] (reference penicillin G = 1), above 2 in assay [3] (reference penicillin G = 1) and 5 in assay [5] (reference penicillin G = 1). Moreover, the “Rate of hydrolysis: microliters 0.005 N NaOH consumed per minute” value in assay [6] is recorded as 0.64 microliters 0.005 N NaOH per m.

With `O=C(Cc1ccccc1)NC1C(=O)N2C1SC1(CC[S+]([O-])CC1)C2C(=O)O` (centres unmarked) [Compound H, 6-(2"-phenylacetamido)-2',3',5',6'-tetrahydro-spiro[penam-2,4'-[4H]thiopyran]-3-carboxylic acid 1'-oxide], the “MIC relative to reference compound (=1)” value in assay [1] (reference penicillin G = 1), in assay [2] (reference penicillin G = 1) and in assay [5] (reference penicillin G = 1) was 1 throughout. The “Rate of hydrolysis: microliters 0.005 N NaOH consumed per minute” value in assay [6] is 0.50 microliters 0.005 N NaOH per m.
